Patent US9358232B2, “Methods for treating cancer using TOR kinase inhibitor combination therapy” (Signal Pharmaceuticals, LLC, priority 2013, dated 2016)
Entries after “also recorded” stand apart in the source; their conditions may differ.

What was measured:
WSU-DLCL2 xenograft = assay: DLBCL xenograft model; assay type: in vivo, SCID mice; settings: for decrease in tumor volume (TVR): Day 34, vs vehicle, Compound 1 10 mg/kg QD, Compound A 30 mg/kg QD, alone or combined (FIGS. 2-3); for tumor volume reduction (TVR): Day 35, end of 3-week dosing, vs vehicle control (FIG. 1)
Protocol: Severe combined immunodeficiency (SCID) mice were implanted with human DLBCL cell line (WSU-DLCL2) into the flank. Treatment of compounds started between Day 11 and Day 14 after cell inoculation. Randomized groups of mice (n=9 to 10/group) were treated with the single agents (Compound 1, Compound A or Compound AA) or the combination of Compound 1/Compound A, Compound A/Compound AA, or Compound 1/Compound AA. Compounds were administered orally on a once daily (Compound 1 and Compound A) or twice daily […] schedule for 21 days. The positive control consisted of CHOP therapy (combination of cyclophosphamide, doxorubicin, vincristine and prednisone). Compound 1 and Compound A were formulated in CMC-Tween (carboxymethylcellulose/Tween 80/deionized water). Compound AA was suspended in DSP (dimethylsulphoxide/solutol/phosphate buffered saline).
Initial studies were conducted in order to determine the antitumor activity of Compound 1 and to identify a dose level for the combination studies. In the WSU-DLCL2 xenograft model, Compound 1 inhibited tumor growth in a dose-dependent fashion. […] In a subsequent combination study, Compound 1 was dosed at 10 mg/kg, once daily (QD). Compound A and Compound AA were dosed at 30 mg/kg (QD) and 50 mg/kg (BID), respectively.

BTK = BTK (Homo sapiens, UniProt Q06187); settings: enzymatic and cellular assays; cited from earlier work
BTK, sequence (Q06187 whole entry): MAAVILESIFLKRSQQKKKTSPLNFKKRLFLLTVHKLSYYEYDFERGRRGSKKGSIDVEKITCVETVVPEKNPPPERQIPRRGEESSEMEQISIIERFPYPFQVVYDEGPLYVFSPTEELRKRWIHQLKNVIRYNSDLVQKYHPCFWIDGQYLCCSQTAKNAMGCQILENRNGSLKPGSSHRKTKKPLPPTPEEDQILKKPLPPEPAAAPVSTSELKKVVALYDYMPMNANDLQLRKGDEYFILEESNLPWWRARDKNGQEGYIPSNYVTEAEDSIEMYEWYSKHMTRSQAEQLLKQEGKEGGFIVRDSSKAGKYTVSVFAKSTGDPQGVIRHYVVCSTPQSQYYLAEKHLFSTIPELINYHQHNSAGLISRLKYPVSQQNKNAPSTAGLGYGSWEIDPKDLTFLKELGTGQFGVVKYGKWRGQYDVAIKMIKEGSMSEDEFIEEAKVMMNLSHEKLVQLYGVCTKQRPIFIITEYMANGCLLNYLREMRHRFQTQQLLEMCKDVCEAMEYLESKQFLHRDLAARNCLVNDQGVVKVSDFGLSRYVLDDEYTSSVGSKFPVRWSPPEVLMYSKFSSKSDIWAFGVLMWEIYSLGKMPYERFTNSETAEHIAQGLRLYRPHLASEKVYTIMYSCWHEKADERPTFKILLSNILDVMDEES

B-cell = settings: cited from earlier work
[1] = combination study, Compound AA 50 mg/kg BID
[2] = combination study, single agents or in combination

SMILES	antitumor activity as single agent (WSU-DLCL2 xenograft; [1])	body weight loss (WSU-DLCL2 xenograft; [2])	inhibition of BTK (BTK)	effect on B-cell proliferation and activation (B-cell)	decrease in tumor volume (TVR) (WSU-DLCL2 xenograft; [1]) [%]	tumor volume reduction (TVR) (WSU-DLCL2 xenograft; 1 mg/kg oral once daily) [%]	tumor volume reduction (TVR) (WSU-DLCL2 xenograft; 3 mg/kg oral once daily) [%]	body weight loss (WSU-DLCL2 xenograft; initial dose study, 1, 3 and 10 mg/kg (FIG. 1))
C=CC(=O)Nc1cccc(Nc2nc(Nc3ccc(OCCOC)cc3)ncc2F)c1 [Compound AA, N-(3-(5-fluoro-2-(4-(2-methoxyethoxy)phenylamino)pyrimidin-4-ylamino)phenyl)acrylamide]	No significant antitumor activity; also recorded: inactive	No significant body weight loss	covalent, irreversible inhibition of BTK	inhibit B-cell proliferation and activation				
Cc1nc2cccc(N)c2c(=O)n1C1CCC(=O)NC1=O (centres unmarked) [Compound A, 3-(5-Amino-2-methyl-4-oxoquinazolin-3(4H)-yl)-piperidine-2,6-dione]		No significant body weight loss			30			
CO[C@H]1CC[C@H](N2C(=O)CNc3ncc(-c4ccc(C(C)(C)O)nc4)nc32)CC1 [Compound 1, 7-(6-(2-hydroxypropan-2-yl)pyridin-3-yl)-1-((1r,4r)-4-methoxycyclohexyl)-3,4-dihydropyrazino-[2,3-b]pyrazin-2(1H)-one]		No significant body weight loss			29	~22	~28	No significant body weight loss
